Experiments:
[1] = target: T1, 431/26 hum VH huβGlc 1H fusion protein (Homo sapiens, UniProt P01860+P08236); experiment: prodrug cleavage by β-glucuronidase (fusion protein), HPLC; type: biochemical
T1 construct: made in house; host or cells: BHK cells
Protocol: (§1) It was shown in Example 17 that the β-glucuronidase portion of the fusion protein is able, like the native human enzyme, to cleave the β-glucuronide of 4-methylumbelliferol. In the investigations which are described hereinafter, the substrate used for the enzymatic cleavage was a β-glucuronide, linked via a spacer group, of the cytostatic daunomycin. The specific procedure for these investigations was as follows:
(§2) 4 mg of the compound N-(4-hydroxy-3-nitrobenzyloxy-carbonyl)daunorubicin β-D-glucuronide (prodrug), which is described in French Patent Application (No. d'Enregistrement National: 9105326) were dissolved in 1 ml of 20 mM phosphate buffer, pH 7.2. 35 μl of the fusion protein (Example 21) or of human β-glucuronidase (total concentration in each case 6.5 U/ml; 1 U=cleavage of 1 μmol of 4-methyl-umbelliferol/min at 37° C.) were pipetted into 5 μl portions of this substrate solution and incubated in the dark at 37° C. Samples (5 μl) of the incubation mixture were removed after various times and immediately analyzed by high pressure liquid chromatography under the following conditions:
(§3) Nucleosil 100 RP 18, 5 μm particle diameter, 125×4.6 mm
(§4) Gradient of solution A (100% acetonitrile) and solution B (20 mM phosphate buffer pH.3.0)
(§5) Detection: fluorescence, excitation 495 nm, emission […]
(§6) Data analysis: Beckman System Gold Software

[2] = target: T2, human β-glucuronidase (Homo sapiens, UniProt P08236); experiment: prodrug cleavage by β-glucuronidase (human, recombinant), HPLC; type: biochemical
T2 sequence (P08236 23-651): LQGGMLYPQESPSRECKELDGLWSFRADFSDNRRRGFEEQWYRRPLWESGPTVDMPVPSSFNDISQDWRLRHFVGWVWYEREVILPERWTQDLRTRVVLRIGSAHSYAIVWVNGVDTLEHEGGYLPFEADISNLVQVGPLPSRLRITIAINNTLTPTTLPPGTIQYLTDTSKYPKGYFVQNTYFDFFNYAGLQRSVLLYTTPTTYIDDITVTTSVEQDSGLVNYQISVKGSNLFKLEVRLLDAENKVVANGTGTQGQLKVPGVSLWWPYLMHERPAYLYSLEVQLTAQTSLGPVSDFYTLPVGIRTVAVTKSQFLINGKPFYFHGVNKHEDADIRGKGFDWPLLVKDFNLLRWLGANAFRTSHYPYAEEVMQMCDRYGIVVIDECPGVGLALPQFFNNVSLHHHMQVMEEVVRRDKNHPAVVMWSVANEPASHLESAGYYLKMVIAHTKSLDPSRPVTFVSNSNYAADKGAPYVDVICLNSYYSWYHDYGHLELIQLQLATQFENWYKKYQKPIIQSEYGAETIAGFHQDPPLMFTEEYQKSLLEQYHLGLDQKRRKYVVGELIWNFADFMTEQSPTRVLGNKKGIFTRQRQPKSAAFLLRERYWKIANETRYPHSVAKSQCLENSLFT
Protocol: as §1, §2, §3, §4, §5, §6

[3] = test system: alpha-glucosidase; conditions: in vitro, enzyme alpha-glucosidase
[4] = test system: tumor-specific antibody-glucosidase conjugate; conditions: in vitro

T1 sequence (P01860+P08236 fused): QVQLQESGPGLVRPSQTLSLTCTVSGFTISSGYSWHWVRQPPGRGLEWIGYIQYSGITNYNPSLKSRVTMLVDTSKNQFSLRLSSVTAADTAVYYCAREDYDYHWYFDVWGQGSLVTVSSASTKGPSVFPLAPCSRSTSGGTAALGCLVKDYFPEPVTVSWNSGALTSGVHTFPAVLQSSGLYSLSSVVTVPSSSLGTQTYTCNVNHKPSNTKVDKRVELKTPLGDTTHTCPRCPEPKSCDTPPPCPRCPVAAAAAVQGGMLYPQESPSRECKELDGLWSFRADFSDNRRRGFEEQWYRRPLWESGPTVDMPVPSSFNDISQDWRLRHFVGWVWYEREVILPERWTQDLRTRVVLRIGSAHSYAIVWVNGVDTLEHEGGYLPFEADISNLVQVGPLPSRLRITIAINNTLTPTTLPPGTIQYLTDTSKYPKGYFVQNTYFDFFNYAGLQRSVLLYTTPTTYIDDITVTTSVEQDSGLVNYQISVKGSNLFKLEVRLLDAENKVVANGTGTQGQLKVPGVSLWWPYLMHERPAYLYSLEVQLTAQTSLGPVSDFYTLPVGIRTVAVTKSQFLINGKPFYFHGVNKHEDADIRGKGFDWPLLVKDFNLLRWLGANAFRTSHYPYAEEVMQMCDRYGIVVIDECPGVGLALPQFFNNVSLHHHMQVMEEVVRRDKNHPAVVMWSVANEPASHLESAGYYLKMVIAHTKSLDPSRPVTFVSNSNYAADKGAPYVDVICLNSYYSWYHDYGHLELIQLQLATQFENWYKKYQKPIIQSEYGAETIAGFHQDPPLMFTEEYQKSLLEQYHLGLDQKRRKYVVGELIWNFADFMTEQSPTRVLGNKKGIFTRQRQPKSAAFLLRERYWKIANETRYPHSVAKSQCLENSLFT

Compound: COc1cccc2c1C(=O)c1c(O)c3c(c(O)c1C2=O)C[C@@](O)(C(C)=O)C[C@@H]3O[C@H]1C[C@H](NC(=O)OCc2ccc(O[C@@H]3O[C@H](C(=O)O)[C@@H](O)[C@H](O)[C@H]3O)c([N+](=O)[O-])c2)[C@H](O)[C@H](C)O1 [Prodrug, N-(4-hydroxy-3-nitrobenzyloxy-carbonyl)daunorubicin β-D-glucuronide]
- DNM area % (liberated daunomycin) ([1]; t 0 min): 1.1 area %
- Prodrug area % ([1]; t 0 min): 98.9 area %
- DNM area % (liberated daunomycin) ([1]; t 50 min): 18.9 area %
- Prodrug area % ([1]; t 50 min): 81.1 area %
- DNM area % (liberated daunomycin) ([1]; t 135 min): 48.3 area %
- Prodrug area % ([1]; t 135 min): 51.7 area %
- DNM area % (liberated daunomycin) ([1]; t 190 min): 67.0 area %
- Prodrug area % ([1]; t 190 min): 33.0 area %
- DNM area % (liberated daunomycin) ([1]; t 247 min): 78.0 area %
- Prodrug area % ([1]; t 247 min): 22.0 area %
- DNM area % (liberated daunomycin) ([1]; t 317 min): 87.6 area %
- Prodrug area % ([1]; t 317 min): 12.4 area %
- DNM area % (liberated daunomycin) ([2]; t 0 min): 0.8 area %
- Prodrug area % ([2]; t 0 min): 99.2 area %
- DNM area % (liberated daunomycin) ([2]; t 57 min): 64.0 area %
- Prodrug area % ([2]; t 57 min): 36.0 area %
- DNM area % (liberated daunomycin) ([2]; t 130 min): 89.7 area %
- Prodrug area % ([2]; t 130 min): 10.3 area %
- DNM area % (liberated daunomycin) ([2]; t 227 min): 90.7 area %
- Prodrug area % ([2]; t 227 min): 9.3 area %

Compound: 4′-O-alpha-D-glucopyranosyl-etoposide
- cleavage into etoposide and D-glucose [3]: can be cleaved in vitro into etoposide and D-glucose
- cleavage into etoposide and D-glucose [4]: can be cleaved in vitro into etoposide and D-glucose
